Measured values as given in ChEMBL document CHEMBL1201862, “PubChem BioAssay data set” (2004).
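Compound exposure: 48 hours, 5 concentrations, 96-well plates. Here, GI50 denotes the concentration required for 50% inhibition of growth.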 Active and inactive are the calls of the source. Cut-off read from the data, not from the text of the source: active = GI50 up to about 1.1 µM and inactive = higher.

Experiments:
Experiment in all cases: DTP human tumour cell line panel, 48 h
[1] = system: 786-0
[2] = system: A498
[3] = system: A549
[4] = system: ACHN
[5] = system: CAKI-1
[6] = system: CCRF-CEM
[7] = system: DLD-1
[8] = system: DMS-273
[9] = system: EKVX
[10] = system: HCC 2998
[11] = system: HCT-116
[12] = system: HCT-15
[13] = system: HL-60
[14] = system: HOP-62
[15] = system: HOP-92
[16] = system: HT-29
[17] = system: IGROV-1
[18] = system: K562
[19] = system: KM12
[20] = system: LOX IMVI
[21] = system: LXFL 529
[22] = system: M14
[23] = system: MOLT-4
[24] = system: Malme-3M
[25] = system: NCI-H23
[26] = system: NCI-H460
[27] = system: NCI-H522
[28] = system: OVCAR-3
[29] = system: OVCAR-4
[30] = system: OVCAR-5
[31] = system: OVCAR-8
[32] = system: RPMI-8226
[33] = system: RXF 393
[34] = system: RXF 631
[35] = system: SF-268
[36] = system: SF-295
[37] = system: SF-539
[38] = system: SK-MEL-28
[39] = system: SK-MEL-2
[40] = system: SK-MEL-5
[41] = system: SN12C
[42] = system: SNB-19
[43] = system: SNB-75
[44] = system: SNB-78
[45] = system: SW-620
[46] = system: TK-10
[47] = system: U-251
[48] = system: UACC-257
[49] = system: UACC-62
[50] = system: UO-31
[51] = system: XF498
[52] = system: COLO 205
[53] = system: DMS-114
[54] = system: KM-20L2
[55] = system: M19-MEL
[56] = system: NCI-H226
[57] = system: SR
[58] = system: SK-OV-3

CC12CCCCC1C(=O)C2(Cl)Cl (configuration not stated)
GI50 [1]: 1.83 µM (inactive) | GI50 [2]: 3.94 µM (inactive) | GI50 [3]: 3.18 µM (inactive) | GI50 [4]: 2.51 µM (inactive) | GI50 [5]: 2.15 µM (inactive) | GI50 [6]: 1.42 µM (inactive) | GI50 [7]: 1.97 µM (inactive) | GI50 [8]: 2.21 µM (inactive) | GI50 [9]: 2.76 µM (inactive) | GI50 [10]: 1.79 µM (inactive) | GI50 [11]: 1.69 µM (inactive) | GI50 [12]: 3.35 µM | GI50 [13]: 1.76 µM (inactive) | GI50 [14]: 1.6 µM (inactive) | GI50 [15]: 1.69 µM (inactive) | GI50 [16]: 1.3 µM (inactive) | GI50 [17]: 2.96 µM (inactive) | GI50 [18]: 1.83 µM (inactive) | GI50 [19]: 1.79 µM (inactive) | GI50 [20]: 2.64 µM (inactive) | GI50 [21]: 2.28 µM (inactive) | GI50 [22]: 2.03 µM (inactive) | GI50 [23]: 1.84 µM (inactive) | GI50 [24]: 1.4 µM (inactive) | GI50 [25]: 2.39 µM (inactive) | GI50 [26]: 2.28 µM (inactive) | GI50 [27]: 1.89 µM (inactive) | GI50 [28]: 1.77 µM (inactive) | GI50 [29]: 3.49 µM (inactive) | GI50 [30]: 2.56 µM (inactive) | GI50 [31]: 2.04 µM (inactive) | GI50 [32]: 1.31 µM (inactive) | GI50 [33]: 3.72 µM (inactive) | GI50 [34]: 1.92 µM (inactive) | GI50 [35]: 2.7 µM (inactive) | GI50 [36]: 1.66 µM (inactive) | GI50 [37]: 2.17 µM (inactive) | GI50 [38]: 1.8 µM (inactive) | GI50 [39]: 1.95 µM (inactive) | GI50 [40]: 1.83 µM (inactive) | GI50 [41]: 2.98 µM (inactive) | GI50 [42]: 3.31 µM (inactive) | GI50 [43]: 3.34 µM (inactive) | GI50 [44]: 4.44 µM (inactive) | GI50 [45]: 2.05 µM (inactive) | GI50 [46]: 3.85 µM (inactive) | GI50 [47]: 2.21 µM (inactive) | GI50 [48]: 2.06 µM (inactive) | GI50 [49]: 2.2 µM (inactive) | GI50 [50]: 2.18 µM (inactive) | GI50 [51]: 2.07 µM (inactive)

CCCCn1c(-c2ccccc2)cs/c1=N\N=C1C=C(C(C)(C)C)C(=O)C(C(C)(C)C)=C1
GI50 [1]: > 100 µM (inactive) | GI50 [2]: > 100 µM (inactive) | GI50 [3]: > 100 µM (inactive) | GI50 [4]: > 100 µM (inactive) | GI50 [5]: > 100 µM (inactive) | GI50 [6]: > 100 µM (inactive) | GI50 [52]: > 100 µM (inactive) | GI50 [53]: > 100 µM (inactive) | GI50 [8]: > 100 µM (inactive) | GI50 [9]: > 100 µM (inactive) | GI50 [10]: > 100 µM (inactive) | GI50 [11]: > 100 µM (inactive) | GI50 [12]: > 100 µM | GI50 [13]: > 100 µM (inactive) | GI50 [14]: > 100 µM (inactive) | GI50 [16]: > 100 µM (inactive) | GI50 [17]: > 100 µM (inactive) | GI50 [18]: > 100 µM (inactive) | GI50 [54]: > 100 µM (inactive) | GI50 [20]: > 100 µM (inactive) | GI50 [21]: > 100 µM (inactive) | GI50 [22]: > 100 µM (inactive) | GI50 [55]: > 100 µM (inactive) | GI50 [23]: > 100 µM (inactive) | GI50 [24]: > 100 µM (inactive) | GI50 [56]: > 100 µM (inactive) | GI50 [25]: > 100 µM (inactive) | GI50 [26]: > 100 µM (inactive) | GI50 [28]: > 100 µM (inactive) | GI50 [29]: > 100 µM (inactive) | GI50 [30]: > 100 µM (inactive) | GI50 [31]: > 100 µM (inactive) | GI50 [33]: > 100 µM (inactive) | GI50 [34]: > 100 µM (inactive) | GI50 [35]: > 100 µM (inactive) | GI50 [36]: > 100 µM (inactive) | GI50 [37]: > 100 µM (inactive) | GI50 [39]: > 100 µM (inactive) | GI50 [41]: > 100 µM (inactive) | GI50 [42]: > 100 µM (inactive) | GI50 [57]: > 100 µM (inactive) | GI50 [45]: > 100 µM (inactive) | GI50 [46]: > 100 µM (inactive) | GI50 [47]: > 100 µM (inactive) | GI50 [48]: > 100 µM (inactive) | GI50 [49]: > 100 µM (inactive) | GI50 [50]: > 100 µM (inactive) | GI50 [51]: > 100 µM (inactive)

CC(C)(C)OC(=O)N1C2CCCC23O[C@@H]1c1cc2c(cc1C3=O)OCO2 (some centres not stated)
GI50 [1]: 34.5 µM (inactive) | GI50 [2]: > 10 µM (inactive) | GI50 [3]: 29.4 µM (inactive) | GI50 [4]: 54.1 µM (inactive) | GI50 [5]: 9.57 µM (inactive) | GI50 [6]: 21.1 µM (inactive) | GI50 [7]: 27.1 µM (inactive) | GI50 [53]: 19.9 µM (inactive) | GI50 [8]: 6.27 µM (inactive) | GI50 [9]: 43.9 µM (inactive) | GI50 [11]: 36.3 µM (inactive) | GI50 [13]: 5.25 µM (inactive) | GI50 [14]: 23.6 µM (inactive) | GI50 [15]: 28.6 µM (inactive) | GI50 [16]: 14.5 µM (inactive) | GI50 [17]: 20 µM (inactive) | GI50 [18]: 6.5 µM (inactive) | GI50 [19]: 14.4 µM (inactive) | GI50 [21]: 44.3 µM (inactive) | GI50 [22]: 12.3 µM (inactive) | GI50 [55]: 26.6 µM (inactive) | GI50 [23]: 24.6 µM (inactive) | GI50 [24]: 25.6 µM (inactive) | GI50 [56]: 81.1 µM (inactive) | GI50 [25]: 24.9 µM (inactive) | GI50 [26]: 34 µM (inactive) | GI50 [27]: 8.89 µM (inactive) | GI50 [28]: 8.81 µM (inactive) | GI50 [29]: > 100 µM (inactive) | GI50 [30]: > 100 µM (inactive) | GI50 [31]: 61.1 µM (inactive) | GI50 [33]: 24.5 µM (inactive) | GI50 [34]: 27.2 µM (inactive) | GI50 [35]: 41.8 µM (inactive) | GI50 [36]: 20.8 µM (inactive) | GI50 [37]: 19.5 µM (inactive) | GI50 [38]: 67.3 µM (inactive) | GI50 [39]: 53.3 µM (inactive) | GI50 [40]: 4.41 µM (inactive) | GI50 [58]: 27.3 µM (inactive) | GI50 [41]: 41.2 µM (inactive) | GI50 [42]: 39.2 µM (inactive) | GI50 [43]: 12.6 µM (inactive) | GI50 [44]: > 100 µM (inactive) | GI50 [57]: 32.1 µM (inactive) | GI50 [45]: 22.4 µM (inactive) | GI50 [46]: 41 µM (inactive) | GI50 [47]: 41.3 µM (inactive) | GI50 [48]: 52.8 µM (inactive) | GI50 [49]: 6.24 µM (inactive) | GI50 [50]: 39.6 µM (inactive) | GI50 [51]: 26.6 µM (inactive)

Cn1ncc2cc3c(Nc4ccc(Cl)cc4)cccc3nc21
GI50 [1]: 21.6 µM (inactive) | GI50 [3]: 18.2 µM (inactive) | GI50 [4]: 15 µM (inactive) | GI50 [5]: 15.5 µM (inactive) | GI50 [6]: 15.1 µM (inactive) | GI50 [52]: 13.7 µM (inactive) | GI50 [7]: 20.3 µM (inactive) | GI50 [53]: 12.9 µM (inactive) | GI50 [8]: > 10 µM (inactive) | GI50 [9]: 18.1 µM (inactive) | GI50 [10]: 21 µM (inactive) | GI50 [12]: 14.1 µM | GI50 [13]: 11 µM (inactive) | GI50 [14]: 15 µM (inactive) | GI50 [15]: 6.67 µM (inactive) | GI50 [17]: 15.3 µM (inactive) | GI50 [18]: 20 µM (inactive) | GI50 [54]: 14.7 µM (inactive) | GI50 [19]: 17.3 µM (inactive) | GI50 [20]: 14.9 µM (inactive) | GI50 [21]: 15.6 µM (inactive) | GI50 [22]: 18.8 µM (inactive) | GI50 [55]: 22.1 µM (inactive) | GI50 [23]: 6.82 µM (inactive) | GI50 [24]: 23 µM (inactive) | GI50 [25]: 22.2 µM (inactive) | GI50 [26]: 8.61 µM (inactive) | GI50 [27]: 1.75 µM (inactive) | GI50 [28]: 12.7 µM (inactive) | GI50 [29]: 11.8 µM (inactive) | GI50 [30]: > 10 µM (inactive) | GI50 [31]: 19 µM (inactive) | GI50 [32]: 10.9 µM (inactive) | GI50 [33]: 6.87 µM (inactive) | GI50 [34]: 17.7 µM (inactive) | GI50 [35]: 15.8 µM (inactive) | GI50 [36]: 14.2 µM (inactive) | GI50 [38]: 15.1 µM (inactive) | GI50 [39]: 22.6 µM (inactive) | GI50 [40]: 13.1 µM (inactive) | GI50 [58]: 61.2 µM (inactive) | GI50 [41]: 18.1 µM (inactive) | GI50 [42]: 37.8 µM (inactive) | GI50 [43]: 19.4 µM (inactive) | GI50 [44]: 34 µM (inactive) | GI50 [45]: 13.9 µM (inactive) | GI50 [46]: 26.9 µM (inactive) | GI50 [48]: 18.9 µM (inactive) | GI50 [49]: 15.1 µM (inactive) | GI50 [50]: 7.4 µM (inactive) | GI50 [51]: 8.11 µM (inactive)
